Experimental data as given in publication PMC10971446 (Marine Drugs, 2024).
Where a SMILES comes first, the peptide text is derived from it. Bridges are numbered along the chain shown (N, C = ends). [ ]: non-standard residue; d: D form. pGlu = O=C1CC[C@@H](C(=O)O)N1

What was measured:
α7 nAChR = conditions: cited from earlier work
[1] = tested on: ACh+PNU-responsive mouse DRG neurons (α7 nAChR); format: cell-based
mouse α6/α3β4 nAChR = mouse α6/α3β4 nAChR (Mus musculus, UniProt Q8R493+Q8R4G9+Q9R0W9); format: cell-based
mouse DRG neurons = conditions: cited from earlier work

Sequence of mouse α6/α3β4 nAChR (Q8R493 whole entry, looked up): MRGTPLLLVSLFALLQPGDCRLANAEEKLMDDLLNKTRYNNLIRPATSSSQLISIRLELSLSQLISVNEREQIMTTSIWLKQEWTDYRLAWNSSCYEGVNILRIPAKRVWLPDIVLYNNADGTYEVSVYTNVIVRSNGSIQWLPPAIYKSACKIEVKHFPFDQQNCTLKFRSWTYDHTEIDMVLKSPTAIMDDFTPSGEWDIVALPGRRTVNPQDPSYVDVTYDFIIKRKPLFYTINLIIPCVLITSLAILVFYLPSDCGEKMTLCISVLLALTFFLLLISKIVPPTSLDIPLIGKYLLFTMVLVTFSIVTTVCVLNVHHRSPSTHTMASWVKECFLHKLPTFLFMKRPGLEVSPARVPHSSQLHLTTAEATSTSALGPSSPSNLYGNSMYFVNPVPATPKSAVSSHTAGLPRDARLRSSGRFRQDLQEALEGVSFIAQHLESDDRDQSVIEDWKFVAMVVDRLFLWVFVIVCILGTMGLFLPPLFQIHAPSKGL
Sequence of mouse α6/α3β4 nAChR (Q8R4G9 whole entry, looked up): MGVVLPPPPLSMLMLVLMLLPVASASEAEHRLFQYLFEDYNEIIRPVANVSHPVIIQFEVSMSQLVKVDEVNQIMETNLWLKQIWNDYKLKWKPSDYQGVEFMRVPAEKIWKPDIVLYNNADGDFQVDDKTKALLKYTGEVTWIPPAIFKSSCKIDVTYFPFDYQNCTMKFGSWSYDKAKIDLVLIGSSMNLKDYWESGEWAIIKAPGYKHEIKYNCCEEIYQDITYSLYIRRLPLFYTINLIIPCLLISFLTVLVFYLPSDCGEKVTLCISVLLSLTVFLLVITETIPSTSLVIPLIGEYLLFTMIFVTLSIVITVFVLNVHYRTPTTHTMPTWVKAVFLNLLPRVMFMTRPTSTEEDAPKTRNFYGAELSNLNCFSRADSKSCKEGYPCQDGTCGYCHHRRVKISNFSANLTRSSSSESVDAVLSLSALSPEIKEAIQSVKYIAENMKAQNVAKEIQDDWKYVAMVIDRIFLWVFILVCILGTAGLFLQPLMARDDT
Sequence of mouse α6/α3β4 nAChR (Q9R0W9 whole entry, looked up): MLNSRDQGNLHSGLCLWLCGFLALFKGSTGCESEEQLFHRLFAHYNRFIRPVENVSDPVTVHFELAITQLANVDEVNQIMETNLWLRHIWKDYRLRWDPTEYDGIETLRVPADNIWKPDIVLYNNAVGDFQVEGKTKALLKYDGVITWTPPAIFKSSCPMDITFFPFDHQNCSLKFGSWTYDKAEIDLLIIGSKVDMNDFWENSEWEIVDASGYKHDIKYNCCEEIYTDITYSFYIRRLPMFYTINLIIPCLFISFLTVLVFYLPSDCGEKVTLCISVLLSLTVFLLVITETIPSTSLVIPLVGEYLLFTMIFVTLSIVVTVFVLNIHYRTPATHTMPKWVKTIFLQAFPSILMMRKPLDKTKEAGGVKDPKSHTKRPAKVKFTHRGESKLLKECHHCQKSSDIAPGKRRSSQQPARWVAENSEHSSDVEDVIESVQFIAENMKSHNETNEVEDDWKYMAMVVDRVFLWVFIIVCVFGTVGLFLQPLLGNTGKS

In the case of PNU-120596, the “α7 modulation” value (α7 nAChR) is given as “α7 positive allosteric modulator” and the “calcium response to ACh alone or ACh+PNU in α7-expressing DRG neurons” value [1] is given as “co-application of ACh and PNU uncovered a calcium response”.

For CC(C)C[C@@H]1NC(=O)[C@H](CCC(=O)O)NC(=O)[C@@H]2CCCN2C(=O)[C@H](Cc2c[nH]cn2)NC(=O)[C@H](CC(N)=O)NC(=O)[C@H](C(C)C)NC(=O)[C@H](CO)NC(=O)[C@@H]2CSSC[C@H](NC(=O)CNC(=O)[C@@H]3CCC(=O)N3)C(=O)N[C@@H](CSSC[C@@H](C(=O)N[C@@H](Cc3c[nH]c4ccccc34)C(=O)O)NC1=O)C(=O)N[C@@H](CO)C(=O)N[C@@H](Cc1c[nH]cn1)C(=O)N1CCC[C@H]1C(=O)N[C@@H](C)C(=O)N2 [αCtx-AtIA] ([pGlu]GCCSHPACSVNHPELCW-OH; disulfide 3-9, 4-17), the “loss of potency on α6/α3β4 compared to αCtx-PeIA” value (mouse α6/α3β4 nAChR) was ~ 5 fold.

In the case of CC(=O)OCC[N+](C)(C)C [ACh, acetylcholine], the “calcium response of DRG neurons to agonist” value (mouse DRG neurons) is listed as “a subset of mouse DRG neurons responds to serial application of 1 mM acetylcholine (ACh) with elevation of intracellular calcium” and the “calcium response to ACh alone or ACh+PNU in α7-expressing DRG neurons” value [1] is listed as “did not cause calcium influx in these cells”.
